Results taken from publication PMC4624854 (Frontiers in Molecular Neuroscience, 2015).

Columns and labels:
α1 GlyR [1] = system: α1 GlyR; set-up: method as in Raafat et al., 2010; conditions: non-competitive inhibition; ref Raafat et al., 2010; cited from earlier work
α2 GlyRs = biological target: T1, α2 GlyRs (Homo sapiens, UniProt P23416); assay: whole-cell patch-clamp of Igly, homomeric α2 GlyRs in CHO cells; format: cell-based
T1 construct: expressed in transfected cells; host or cells: CHO-K1
T1 sequence (P23416 28-452): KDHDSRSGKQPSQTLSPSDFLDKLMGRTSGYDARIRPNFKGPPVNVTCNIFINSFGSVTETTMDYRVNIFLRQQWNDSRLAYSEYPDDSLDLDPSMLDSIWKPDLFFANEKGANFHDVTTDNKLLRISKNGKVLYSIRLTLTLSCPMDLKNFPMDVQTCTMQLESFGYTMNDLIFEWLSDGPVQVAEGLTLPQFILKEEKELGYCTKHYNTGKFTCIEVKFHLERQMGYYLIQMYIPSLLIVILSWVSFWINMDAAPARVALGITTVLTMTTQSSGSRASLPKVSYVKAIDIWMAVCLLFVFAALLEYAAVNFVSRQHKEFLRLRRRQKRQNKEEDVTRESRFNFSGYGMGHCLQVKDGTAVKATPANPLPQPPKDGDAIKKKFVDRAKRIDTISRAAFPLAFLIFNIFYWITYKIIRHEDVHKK
Description: (§1) For electrophysiological analysis cells were transfected with cDNAs of different receptor-operated channels. One day before the transfection, cells were plated on the coverslips (12–14 mm in diameter), which were placed inside 35-mm cell culture dishes with 2 ml of medium. CHO-K1 cells were transfected with the following cDNAs encoding GlyR subunits: human α1 (1 μg/1 μl), α2 (2 μg/1 μl), α3-long (2 μg/1 μl), and β (in combination with α1 or α2 subunits with the ratio of cDNAs concentrations 1α:5β); or with a mixture of cDNAs encoding GABAA receptors: α1-GFP (1 μg/μl), β2 (1 μg/μl), γ2 (1 μg/μl) using the Lipofectamine 2000 transfection protocol (Life Technology, USA). […]
(§2) Whole-cell recordings were performed at room temperature (20–25 °C) using an EPC-9 amplifier (HEKA Elektronik, Germany). […] In the experiments performed with CsCl intracellular solution, ionic currents were recorded at holding potential (Vh) –30 mV. […] Two parallel rectangular tubes (100 μm × 100 μm) were positioned 40–50 μm above the recorded cell. The movement of the tubes was controlled by a computer-driven fast exchange system (SF 77A Perfusion Fast-Step, Warner, USA) allowing a 10–90% solution exchange in 3–5 ms, as measured by open electrode controls (1/10 external solution/water). […]
(§3) All electrophysiological results were analyzed using PatchMaster (HEKA Electronik, Germany) software. […]

[2] = system: protein phosphatase 2C (PP2C); set-up: method as in Ahlemeyer et al., 2001; conditions: ref Ahlemeyer et al., 2001; cited from earlier work
α1 GlyR [3] = biological target: T2, α1 GlyR (Homo sapiens, UniProt P23415); assay: whole-cell patch-clamp of glycine-induced currents (Igly), homomeric α1 GlyRs expressed in CHO cells; conditions: for average Igly (mean current amplitude) after ginkgolic acid: 2 min, control 291 ± 65
T2 sequence (P23415 29-457): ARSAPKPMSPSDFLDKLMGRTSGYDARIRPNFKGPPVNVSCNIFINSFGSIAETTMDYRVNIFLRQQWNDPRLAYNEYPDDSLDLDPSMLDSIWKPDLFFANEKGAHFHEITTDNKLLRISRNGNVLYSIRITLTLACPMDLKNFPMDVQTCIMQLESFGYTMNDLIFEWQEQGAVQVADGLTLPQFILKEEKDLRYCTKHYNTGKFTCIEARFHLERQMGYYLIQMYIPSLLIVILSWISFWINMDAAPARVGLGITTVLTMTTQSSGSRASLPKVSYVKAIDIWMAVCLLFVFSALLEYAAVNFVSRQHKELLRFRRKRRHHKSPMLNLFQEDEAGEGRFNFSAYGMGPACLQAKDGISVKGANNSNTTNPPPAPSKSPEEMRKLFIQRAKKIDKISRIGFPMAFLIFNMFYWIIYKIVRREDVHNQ
Description: The experiments were carried out on cultured Chinese hamster ovary (CHO-K1) cells obtained from the American Type Tissue Culture Collection (ATCC, Molsheim, France) and on mouse neuroblastoma cells (N2a) cells that were maintained in culture conditions as previously described ([Waseem et al., 2010]; [Mukhtarov et al., 2013]).
(§4) For electrophysiological analysis cells were transfected with cDNAs of different receptor-operated channels. One day before the transfection, cells were plated on the coverslips (12–14 mm in diameter), which were placed inside 35-mm cell culture dishes with 2 ml of medium. CHO-K1 cells were transfected with the following cDNAs encoding GlyR subunits: human α1 (1 μg/1 μl), α2 (2 μg/1 μl), α3-long (2 μg/1 μl), and β (in combination with α1 or α2 subunits with the ratio of cDNAs concentrations 1α:5β); or with a mixture of cDNAs encoding GABAA receptors: α1-GFP (1 μg/μl), β2 (1 μg/μl), γ2 (1 μg/μl) using the Lipofectamine 2000 transfection protocol (Life Technology, USA). To facilitate identification of expressing cells, in the case of GlyR, green fluorescent protein (GFP, 0.5 μg/μl) was added to the transfection medium. Visualization of GABAAR expression was achieved by using the α1-GFP construct ([Bueno et al., 1998]). Three hours after the initial exposure of the cells to the cDNAs, a fresh solution replaced the old one. […] Electrophysiological recordings were performed on fluorescent cells 24–72 h after transfection.
(§5) Whole-cell recordings were performed at room temperature (20–25 °C) using an EPC-9 amplifier (HEKA Elektronik, Germany). Cells were continuously superfused with external solution containing (mM): NaCl 140, CaCl2 2, KCl 2.8, MgCl2 4, HEPES 20, glucose 10; pH 7.4; 320–330 mOsm. Two intracellular solutions were used for filling recording patch pipettes. First, mainly used, ‘CsCl solution’ contained (mM): CsCl 140, CaCl2 6, MgCl2 2, MgATP 2, NaGTP 0.4, HEPES/CsOH 10, BAPTA/KOH 20; pH 7.3; 290 mOsm. In the experiments performed with CsCl intracellular solution, ionic currents were recorded at holding potential (Vh) –30 mV. In some experiments, ‘Kgluconate solution’ was used, in which CsCl 140 mM was replaced by KCl 20 mM + Kgluconate 120 mM. Recordings with this solutions were performed at Vh = 0 mV. Pipettes were pulled from borosilicate glass capillaries (Harvard Apparatus Ltd, USA) and had resistances of 5–10 MOhms. For rapid replacement of solutions, the fast application system was used in this study. Two parallel rectangular tubes (100 μm × 100 μm) were positioned 40–50 μm above the recorded cell. The movement of the tubes was controlled by a computer-driven fast exchange system (SF 77A Perfusion Fast-Step, Warner, USA) allowing a 10–90% solution exchange in 3–5 ms, as measured by open electrode controls (1/10 external solution/water).
In all experiments, the duration of the pulses of agonist was 2 s. […] Cells with low input resistance (<150 MOhms) and a rapid run-down (>30% with repetitive application) were excluded from analysis.
(§6) All electrophysiological results were analyzed using PatchMaster (HEKA Electronik, Germany) software. Dose–response curves were constructed by fitting values obtained at different concentrations, after normalization.
where I is the normalized current amplitude induced by the agonist at concentration [A], nH is the Hill coefficient and EC50 is the concentration at which a half-maximum response was induced.
Paired and unpaired Student’s t-tests were used for statistical analysis. The data are expressed as the means ± SEM.

heteromeric α1/β GlyRs = biological target: T3, heteromeric α1/β GlyRs (Homo sapiens, UniProt P23415); assay: whole-cell patch-clamp of Igly, heteromeric α1/β GlyRs in CHO cells; format: cell-based; conditions: for increase of currents induced by subsaturating glycine: 25 μM ginkgolic acid, n = 5
T3 construct: expressed in transfected cells; host or cells: CHO-K1
T3 sequence (P48167 23-497 partner, one chain of several): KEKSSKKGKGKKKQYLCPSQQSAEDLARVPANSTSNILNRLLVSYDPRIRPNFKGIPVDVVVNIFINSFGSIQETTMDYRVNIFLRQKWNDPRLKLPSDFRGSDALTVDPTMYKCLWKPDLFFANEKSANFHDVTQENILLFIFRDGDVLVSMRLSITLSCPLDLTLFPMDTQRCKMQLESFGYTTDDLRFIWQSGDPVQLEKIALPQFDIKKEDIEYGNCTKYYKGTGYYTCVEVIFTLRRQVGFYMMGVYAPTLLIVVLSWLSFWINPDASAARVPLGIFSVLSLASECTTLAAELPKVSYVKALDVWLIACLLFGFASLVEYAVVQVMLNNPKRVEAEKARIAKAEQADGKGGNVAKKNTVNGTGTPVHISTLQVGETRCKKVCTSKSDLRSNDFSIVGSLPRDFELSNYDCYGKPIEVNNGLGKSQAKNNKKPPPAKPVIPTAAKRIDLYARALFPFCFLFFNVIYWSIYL
Description: as §4
Whole-cell recordings were performed at room temperature (20–25 °C) using an EPC-9 amplifier (HEKA Elektronik, Germany). Cells were continuously superfused with external solution containing (mM): NaCl 140, CaCl2 2, KCl 2.8, MgCl2 4, HEPES 20, glucose 10; pH 7.4; 320–330 mOsm. Two intracellular solutions were used for filling recording patch pipettes. First, mainly used, ‘CsCl solution’ contained (mM): CsCl 140, CaCl2 6, MgCl2 2, MgATP 2, NaGTP 0.4, HEPES/CsOH 10, BAPTA/KOH 20; pH 7.3; 290 mOsm. In the experiments performed with CsCl intracellular solution, ionic currents were recorded at holding potential (Vh) –30 mV. […] Two parallel rectangular tubes (100 μm × 100 μm) were positioned 40–50 μm above the recorded cell. The movement of the tubes was controlled by a computer-driven fast exchange system (SF 77A Perfusion Fast-Step, Warner, USA) allowing a 10–90% solution exchange in 3–5 ms, as measured by open electrode controls (1/10 external solution/water). […]

GABAAR α1/β2/γ2 = GABAAR α1/β2/γ2 (Homo sapiens, UniProt P14867+P47870); assay: whole-cell patch-clamp of GABA-evoked currents, α1/β2/γ2 GABAARs in CHO cells; format: cell-based
Chain of GABAAR α1/β2/γ2 (P14867 28-456): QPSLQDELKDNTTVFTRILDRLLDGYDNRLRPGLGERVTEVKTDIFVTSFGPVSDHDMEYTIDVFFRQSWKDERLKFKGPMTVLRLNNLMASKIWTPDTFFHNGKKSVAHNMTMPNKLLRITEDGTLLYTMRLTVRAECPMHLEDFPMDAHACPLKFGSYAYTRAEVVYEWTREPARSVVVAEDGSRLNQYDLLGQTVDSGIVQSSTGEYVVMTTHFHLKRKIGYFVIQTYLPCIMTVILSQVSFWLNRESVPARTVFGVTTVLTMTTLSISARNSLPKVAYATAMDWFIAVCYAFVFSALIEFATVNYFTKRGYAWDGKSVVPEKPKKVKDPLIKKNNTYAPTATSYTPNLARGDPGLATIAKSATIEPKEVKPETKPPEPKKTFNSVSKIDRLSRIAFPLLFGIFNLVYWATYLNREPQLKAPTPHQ
Chain of GABAAR α1/β2/γ2 (P47870 26-512): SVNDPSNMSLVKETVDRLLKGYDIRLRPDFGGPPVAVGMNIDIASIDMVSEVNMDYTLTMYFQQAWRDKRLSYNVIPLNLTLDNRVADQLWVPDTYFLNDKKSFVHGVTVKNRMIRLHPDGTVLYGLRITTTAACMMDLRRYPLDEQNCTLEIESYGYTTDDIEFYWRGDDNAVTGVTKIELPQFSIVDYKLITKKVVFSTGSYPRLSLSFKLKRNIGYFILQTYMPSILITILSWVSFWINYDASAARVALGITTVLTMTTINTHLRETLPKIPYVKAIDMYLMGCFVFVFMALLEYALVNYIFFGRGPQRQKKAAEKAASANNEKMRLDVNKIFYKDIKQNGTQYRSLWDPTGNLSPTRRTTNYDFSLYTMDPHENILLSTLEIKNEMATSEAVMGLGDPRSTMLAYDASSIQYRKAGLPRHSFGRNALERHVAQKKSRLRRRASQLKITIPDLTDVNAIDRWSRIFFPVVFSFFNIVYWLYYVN
Chain of GABAAR α1/β2/γ2 (P18507 40-475 partner): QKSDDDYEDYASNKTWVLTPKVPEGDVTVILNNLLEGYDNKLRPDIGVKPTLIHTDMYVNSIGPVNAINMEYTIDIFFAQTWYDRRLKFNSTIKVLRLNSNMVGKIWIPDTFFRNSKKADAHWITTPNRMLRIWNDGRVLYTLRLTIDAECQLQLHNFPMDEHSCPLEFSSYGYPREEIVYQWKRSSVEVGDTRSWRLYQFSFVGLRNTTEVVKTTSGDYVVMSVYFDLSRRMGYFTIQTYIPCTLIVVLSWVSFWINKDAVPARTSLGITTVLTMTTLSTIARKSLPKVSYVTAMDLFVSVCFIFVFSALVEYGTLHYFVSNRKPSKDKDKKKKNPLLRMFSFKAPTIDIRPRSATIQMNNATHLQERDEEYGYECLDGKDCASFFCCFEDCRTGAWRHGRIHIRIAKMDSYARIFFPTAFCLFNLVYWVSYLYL
Description: as §4
Whole-cell recordings were performed at room temperature (20–25 °C) using an EPC-9 amplifier (HEKA Elektronik, Germany). Cells were continuously superfused with external solution containing (mM): NaCl 140, CaCl2 2, KCl 2.8, MgCl2 4, HEPES 20, glucose 10; pH 7.4; 320–330 mOsm. Two intracellular solutions were used for filling recording patch pipettes. […] In the experiments performed with CsCl intracellular solution, ionic currents were recorded at holding potential (Vh) –30 mV. […] Two parallel rectangular tubes (100 μm × 100 μm) were positioned 40–50 μm above the recorded cell. The movement of the tubes was controlled by a computer-driven fast exchange system (SF 77A Perfusion Fast-Step, Warner, USA) allowing a 10–90% solution exchange in 3–5 ms, as measured by open electrode controls (1/10 external solution/water). […]
as §3

α1 GlyR [4] = biological target: T2, α1 GlyR; assay: whole-cell patch-clamp of Igly, α1 GlyR expressed in mouse neuroblastoma (N2a) cells; format: cell-based; set-up: expressed in transfected cells; host or cells: mouse neuroblastoma N2a; conditions: 3 μM ginkgolic acid, first two applications (Figure 2B)
Description: as §1, §2

[5] = biological target: T4, α3 GlyR (α3L splice variant) (Homo sapiens, UniProt O75311); assay: whole-cell patch-clamp of Igly, α3-long (α3L) GlyRs in CHO cells; format: cell-based
T4 construct: expressed in transfected cells; host or cells: CHO-K1
T4 sequence (O75311 34-464): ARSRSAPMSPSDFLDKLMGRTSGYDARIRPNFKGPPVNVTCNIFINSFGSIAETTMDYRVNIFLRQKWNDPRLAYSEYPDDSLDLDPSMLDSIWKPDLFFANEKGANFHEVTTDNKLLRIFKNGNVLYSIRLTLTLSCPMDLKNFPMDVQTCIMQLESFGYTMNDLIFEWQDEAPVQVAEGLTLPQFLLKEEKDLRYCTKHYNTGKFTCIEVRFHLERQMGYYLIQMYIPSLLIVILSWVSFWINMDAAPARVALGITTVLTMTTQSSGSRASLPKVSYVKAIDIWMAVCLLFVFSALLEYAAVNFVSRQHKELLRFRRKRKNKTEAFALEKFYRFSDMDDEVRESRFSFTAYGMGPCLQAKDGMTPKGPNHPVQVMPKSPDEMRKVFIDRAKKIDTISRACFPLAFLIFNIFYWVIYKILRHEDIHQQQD
Description: as §4, §5
In all experiments, the duration of the pulses of agonist was 2 s. The duration of ginkgolic acid application varied from 20 s to 6 min. Cells with low input resistance (<150 MOhms) and a rapid run-down (>30% with repetitive application) were excluded from analysis.
as §6

[6] = system: GlyR subunits α1, α2, α3; heteromeric vs homomeric GlyRs; set-up: method as in Kondratskaya et al., 2005; conditions: ref Kondratskaya et al., 2005; cited from earlier work
α3 GlyR subunits = system: α3 GlyR subunits; set-up: method as in Xiong et al., 2011; conditions: ref Xiong et al., 2011; cited from earlier work
α1 GlyR subunits = system: α1 GlyR subunits; set-up: method as in Xiong et al., 2011; conditions: ref Xiong et al., 2011; cited from earlier work

## O=c1c(O)c(-c2ccc(O)c(O)c2)oc2cc(O)cc(O)c12 [Quercetin]
α1 GlyR [1]
  IC50: ~45 µM

## CCCCCC/C=C\CCCCCCCc1cccc(O)c1C(=O)O [ginkgolic acid]
α2 GlyRs; 1 μM ginkgolic acid
  effect on Igly at 1 μM: not detectable
α2 GlyRs; ginkgolic acid <10 μM
  effect on the amplitude of Igly at low concentrations: no effect
[2]
  concentrations at which effects on PP2C were caused: > 100 µM
α1 GlyR [3]
  threshold of potentiation of α1 GlyR: ~30 nM
α1 GlyR [3]; 30 nM ginkgolic acid, glycine 30 μM
  time of treatment after which potentiation was observed (onset): 2 to 3 min
α1 GlyR [3]; 100 nM ginkgolic acid, 20–30 s, n = 8
  augmentation of Igly after 20–30 s of pre-treatment: 26 ± 8%
α1 GlyR [3]; 100 nM ginkgolic acid, 40 s, glycine 30 μM, one cell (Figure 2A)
  potentiation of Igly following the first 40 s: 54%
α1 GlyR [3]; 100 nM ginkgolic acid, glycine 30 μM, n = 8
  average Igly (mean current amplitude) after ginkgolic acid: 467 ± 124 pA
α1 GlyR [3]; 100 nM ginkgolic acid, glycine 30 μM, n = 8, listed as GA
  average Igly (mean current amplitude) after ginkgolic acid: 467±124 pA
α1 GlyR [3]; 100 nM ginkgolic acid, 2 min pre-application, glycine 30 μM, n = 8 cells (range in different cells and mean ± SEM)
  degree of potentiation of Igly: 51 ± 10%
α1 GlyR [3]; 3 μM ginkgolic acid, 30 s, glycine 30 μM
  enhancement of Igly after 30 s: > 30%
α1 GlyR [3]; glycine 0.3–1 mM
  effect on amplitudes of currents induced by saturating glycine: not affected
Heteromeric α1/β GlyRs
  increase of currents induced by subsaturating glycine: 82 ± 39%
Heteromeric α1/β GlyRs; listed as GA
  increase of currents induced by subsaturating glycine: 82%±39
Heteromeric α1/β GlyRs; glycine 0.3–1 mM
  effect on currents induced by saturated glycine: did not increase
GABAAR α1/β2/γ2; 25 μM ginkgolic acid, 20–40 s, GABA 1 μM (EC10) or 10 μM (EC50)
  changes in GABA-evoked currents: did not observe any changes
GABAAR α1/β2/γ2; 25 μM ginkgolic acid, GABA 10 μM, n = 16, control 235 ± 65
  mean current after ginkgolic acid application: 228 ± 63 pA
GABAAR α1/β2/γ2; GABA 10 μM, n = 16, control 235 ± 65
  mean current after washout of ginkgolic acid: 232 ± 65 pA
α1 GlyR [4]
  increase in Igly in N2a cells: more than twofold increase
[5]; 25 μM ginkgolic acid
  overall effect on the amplitude of whole-cell currents: negligible
[5]; 25 μM ginkgolic acid, 20–40 sec pre-treatment, one cell
  change of current induced by 100 μM glycine, one cell with weak potentiation: +4%
[5]; 25 μM ginkgolic acid, glycine 100 μM, n = 6, control 338 ± 101
  mean current in the presence of ginkgolic acid: 318 ± 96 pA
[5]; glycine 100 μM, n = 6, control 338 ± 101
  mean current after washout of ginkgolic acid: 326 ± 113 pA

## ginkgolide B
[6]
  preference for α1 vs. α2 GlyR subunits: about 5 fold
  preference for α1 vs. α3 GlyR subunits: ~3 fold

## CCCCCc1cc(O)c2c(c1)OC(C)(C)C1CCC(C)=CC21 (centres unmarked) [THC, Δ^9-tetrahydrocannabiol]
α3 GlyR subunits
  concentration from which potentiation begins: ≥ 30 nM
α1 GlyR subunits
  concentration from which potentiation begins: ≥ 30 nM

## NCC(=O)O [glycine, reference compound]
[5]; read-out: EC50 to glycine in control, n = 11
  EC50: 142 ± 9.8 µM
